Calls of active or inactive are those of the source.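 How the source made its calls: active means at least 15% GFP+ cells at the top dose together with an EC50 below 10 µM; inactive means the rest.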
How the values were obtained:
[1] = lysozyme-GFP induction in HOXA9-ER cells – HOXA9-ER marrow cells, GFP flow, set 1, SAR follow-up (AID 743181); conditions: HOXA9-ER marrow cells, lysozyme-GFP differentiation, flow; at 10 µM (top of the series)
[2] = tested on: HOXA9-ER marrow cells, lysozyme-GFP differentiation, flow; test: as above

| EC50 [2] | SMILES | GFP+ cells, differentiation [1] |
| --- | --- | --- |
| – | Cc1cccc(C(=O)NCCC(=O)NC2CCCc3ccccc32)c1 (stereo not given) | 1% (inactive) |
| 5.42 µM | O=C(CCNC(=O)c1cccc(Cl)c1)N[C@@H]1CCCc2ccccc21 | – |
| 2.63 µM | O=C(CCNC(=O)c1ccc(C(F)(F)F)cc1)N[C@@H]1CCCc2ccccc21 | – |
| – | O=C(NC1CCc2ccccc21)C1CCCN(C(=O)c2ccc(Cl)cc2)C1 (stereo not given) | 1% (inactive) |
| 5.4 µM | O=C(O)c1cccnc1Nc1ccc(Cl)cc1 | – |
| – | O=C(CNC(=O)c1ccc(Cl)cc1)N[C@@H]1CCCc2ccccc21 | 4% (inactive) |
| 9.97 µM | O=C(CCNC(=O)c1ccc(Cl)cc1)N[C@@H]1CCc2ccccc21 | – |
| 3.47 µM | O=C(CCNC(=O)c1ccc(Cl)cc1)N[C@@H]1CCCc2ccccc21 | – |
| – | O=C(CNC(=O)c1ccc(OC(F)(F)F)cc1)N[C@@H]1CCCc2ccccc21 | 1% (inactive) |
| – | O=C(O)c1ccccc1OCc1ccccc1Br | 1% (inactive) |
| 5.06 µM | O=C(CCNC(=O)c1ccc(Cl)cc1)NC1CCCc2ccccc21 (stereo not given) | – |
| – | O=C(CCCNC(=O)c1ccc(Cl)cc1)N[C@@H]1CCCc2ccccc21 | 2% (inactive) |
| – | O=C(NC1CCOc2ccccc21)C1CCCN(C(=O)c2ccc(Cl)cc2)C1 (stereo not given) | 1% (inactive) |
| – | CC(C)(C)OC(=O)NCCC(=O)N[C@@H]1CCCc2ccccc21 | 1% (inactive) |
| – | CC(c1ccccc1)N(C)C(=O)CCNC(=O)c1ccc(Cl)cc1 (stereo not given) | 0% (inactive) |
| – | O=C(CCNC(=O)c1ccc(Cl)cc1)NC1CCCCC1 | 1% (inactive) |
| 4.69 µM | O=C(CCNC(=O)c1ccc2c(c1)OC(F)(F)O2)N[C@@H]1CCCc2ccccc21 | – |
| – | O=C(CCNC(=O)c1ccc(Cl)cc1)N[C@H]1CCCc2ccccc21 | 1% (inactive) |
| – | O=C(CCNC(=O)c1ccccc1)N[C@@H]1CCCc2ccccc21 | 3% (inactive) |
| – | NCCC(=O)N[C@@H]1CCCc2ccccc21 | 1% (inactive) |

| EC50 [2] | SMILES | GFP+ cells, differentiation [1] |
| --- | --- | --- |
| – | Cc1ccc(C)c(OCCn2cc(C(=O)O)c3ccccc32)c1 | 0% (inactive) |
| 8.68 µM | Cc1ccc(C(=O)NCCC(=O)N[C@@H]2CCCc3ccccc32)cc1 | – |
| – | O=C(Cc1ccc(Cl)cc1)NCCC(=O)N[C@@H]1CCCc2ccccc21 | 16% (inactive) |
| – | CC(NC(=O)C1CCCN(C(=O)c2ccc(Cl)cc2)C1)c1ccccc1 (stereo not given) | 0% (inactive) |
| – | O=C(CNC(=O)c1ccc(C(F)(F)F)cc1)N[C@@H]1CCCc2ccccc21 | 1% (inactive) |
| 3.24 µM | O=C(CCNC(=O)c1ccc(Cl)c(Cl)c1)N[C@@H]1CCCc2ccccc21 | – |
| – | CC(C)(C)OC(=O)NCCC(=O)N[C@H]1CCCc2ccccc21 | 1% (inactive) |
| – | O=C(CNC(=O)c1ccc(Cl)c(Cl)c1)N[C@@H]1CCCc2ccccc21 | 2% (inactive) |
| – | N#Cc1ccc(C(=O)NCCC(=O)N[C@@H]2CCCc3ccccc32)cc1 | 16% (inactive) |
| – | COc1ccccc1C(C)NC(=O)CCNC(=O)c1ccc(Cl)cc1 (stereo not given) | 0% (inactive) |
| 4.95 µM | COc1ccc(C(=O)NCCC(=O)N[C@@H]2CCCc3ccccc32)cc1 | – |
| – | C[C@@H](NC(=O)CCNC(=O)c1ccc(Cl)cc1)c1ccccc1 | 1% (inactive) |
| – | O=C(CCCNC(=O)c1ccc(OC(F)(F)F)cc1)N[C@@H]1CCCc2ccccc21 | 1% (inactive) |
| 1.61 µM | O=C(CCNC(=O)c1ccc(OC(F)(F)F)cc1)N[C@@H]1CCCc2ccccc21 | – |
| – | CC(=O)NCCC(=O)N[C@@H]1CCCc2ccccc21 | 0% (inactive) |
| – | CC(NC(=O)CCNC(=O)c1ccc(Cl)cc1)c1ccc2c(c1)OCO2 (stereo not given) | 0% (inactive) |
| – | O=C(CCCNC(=O)c1ccc(C(F)(F)F)cc1)N[C@@H]1CCCc2ccccc21 | 1% (inactive) |
| – | O=C(CCCNC(=O)c1ccc(Cl)c(Cl)c1)N[C@@H]1CCCc2ccccc21 | 1% (inactive) |
| – | O=C(CCNC(=O)c1ccc(F)cc1)N[C@@H]1CCCc2ccccc21 | 12% (inactive) |
| – | CC(NC(=O)CCNC(=O)c1ccc(Cl)cc1)c1ccc(F)cc1 (stereo not given) | 1% (inactive) |

From PubChem BioAssay AID743181 (NMMLSC, 2013)
